These results are taken from patent US20090182040A1, “Method of Preventing or Reducing Insecticidal Resistance” (BASF SE, priority 2006, published 2009).

The test system of the test is adult pollen beetles with resistance against pyrethroids. Nature of the test: Field trial on a commercial oilseed rape field: spray treatment, count of living adult pollen beetles. Type of test: in vivo, Meligethes aeneus. As for the experimental part:
Experiments were carried out on a commercial oilseed rape field location previously confirmed to have adult pollen beetles with resistance against pyrethroids. The experiments were carried out according the GEP settings for field trial set up and corresponding assessment of the treatments. The lay-out was a standard randomized block de-sign with 4 replicates. The different treatments (see Table 1 below) were prepared by diluting the respective products in water by well homogenized standard stirring in order to spray the four replicates at a spray volume of 300 to 400 liter per ha. The products used were the commercial formulation Fastac® OESC (containing 100 g per liter alpha-cypermethrin) and an experimental liquid formulation (containing 303.5 g PBO on a weight per weight basis). The three combinations of Fastac® OESC and the PBO containing liquid formulation in the Table 1 below were made as a tank mix of a standard rate of Fastac® OESC and a varying rate for the PBO containing formulation. The treatments were sprayed on the plants and the adult pollen beetles present on the plant by means of a knapsack sprayer at standard air pressure. The treatments were applied shortly after each other by appropriate rinsing in between according the GEP standard procedure. The development growth stage of the oilseed rape according to the BBCH code at the time of the treatment was 50 to 59 (the abbreviation “BBCH” stands for the Biologische Bundesanstalt, Bundessortenamt and Chemische Industrie). Shortly before the treatment the present adult pollen beetles were assessed in counting the number of adult pollen beetles present on 50 inflorescences—randomly taken—in each of the replicates. The total number of adult pollen beetles on the 4 replicates was then divided by 4 to give the average number of living adult pollen beetles per 50 inflorescenses, mentioned in the Table 1 below. The same procedure was followed respectively 3 and 6 days after the treatment (DAT).

Take `CC1(C)C(C=C(Cl)Cl)C1C(=O)OC(C#N)c1cccc(Oc2ccccc2)c1` (stereo not drawn) [alpha-cypermethrin]: the “Average number of living adult pollen beetles per 50 inflorescenses” value runs as follows: (alpha-cypermethrin 7.5 g a.i./ha, 0 DAT (count shortly before treatment), oilseed rape field, 4 replicates) 343; (alpha-cypermethrin 7.5 g a.i./ha, 3 DAT) 119; (alpha-cypermethrin 7.5 g a.i./ha, 6 DAT) 75; (alpha-cypermethrin 12.5 g a.i./ha, 0 DAT (count shortly before treatment)) 352; (alpha-cypermethrin 12.5 g a.i./ha, 3 DAT) 116; (alpha-cypermethrin 12.5 g a.i./ha, 6 DAT) 79.
